Converted amounts (≈) assume the structure as drawn. Read-outs that look alike come from different tables or passages of the source.
Key:
liver carcinoma HepG2 = experiment: In vitro cytotoxicity MTS assay, HepG2
[1] = tested on: C. clostridioforme ATCC 25537; experiment: MIC against anaerobic bacteria; format: cell-based, Clostridium clostridioforme; settings: Clostridium, ATCC25537, read-out: MIC C. clostridioforme ATCC 25537
S. epidermidis 1457 = experiment: MIC against aerobic bacteria; format: cell-based; settings: Staphylococcus epidermidis, 1457, read-out: MIC S. epidermidis 1457
[2] = tested on: B. thetaiotaomicron ATCC 29148; experiment: microbe, parasite or virus in culture; format: cell-based; settings: Bacteroides thetaiotaomicron, ATCC29148, read-out: MIC B. thetaiotaomicron ATCC 29148
A. baumannii M2 = experiment: MIC against aerobic bacteria; format: cell-based; settings: Acinetobacter baumannii, M2, read-out: MIC A. baumannii M2
P. aeruginosa PAO1 = experiment: MIC against aerobic bacteria; format: cell-based, Pseudomonas aeruginosa; settings: Pseudomonas aeruginosa, PAO1, read-out: MIC P. aeruginosa PAO1
B. subtilis ATCC 6051 = experiment: MIC against aerobic bacteria; format: cell-based, Bacillus subtilis; settings: Bacillus subtilis, ATCC6051, read-out: MIC B. subtilis ATCC 6051
P. distasonis ATCC 8503 = experiment: MIC against anaerobic bacteria; format: cell-based, Parabacteroides distasonis; settings: Parabacteroides distasonis, ATCC8503, read-out: MIC P. distasonis ATCC 8503
S. aureus RN4220 = experiment: MIC against aerobic bacteria; format: cell-based; settings: Staphylococcus aureus, RN4220; aerobic; read-out: MIC S. aureus RN4220
[3] = tested on: embryonic kidney HEK 293T/17; experiment: In vitro cytotoxicity MTS assay, HEK 293T/17
[4] = tested on: Clostridium difficile strain 4118; experiment: Minimum bactericidal concentration (MBC), logarithmic- and stationary-phase cells; format: cell-based; settings: Clostridioides difficile, 3-log reduction of inoculum
Description: The MBClog values of the protonophores were determined to be 0.25-2 μg/mL (˜4 to 8-fold greater than their respective MIC values).
Clostridium difficile strain 4118 was grown to OD600˜0.4-0.5 (logarithmic phase) or for 24 h (stationary phase), and thereafter added to two-fold serial dilutions of test compounds. Cultures were incubated for 20-24 h at 37° C., and then viable counts were enumerated on BHIS agar plates. […] MBC measurements were performed in duplicate.

sheep erythrocytes = experiment: Hemolysis assay; settings: tested at 32 μg/mL; 37° C., 1 h
Description: Sheep red blood cells (Innovative Research, Novi, Mich., USA) were washed three times with PBS pH 7.4. A 3% cell suspension in PBS (100 μL) was added to test compounds in PBS (100 μL), and then incubated at 37° C. for 1 h. The plate was centrifuged at 500×g for 10 min, and supernatants (100 μL) were transferred to a clean 96-well plate. Hemolysis was determined by measuring absorbance at 540 nm, with 1% Triton X-100 as the positive control and 0.5% DMSO in PBS as the negative control. Hemolysis assays were performed in triplicate.

P. nigrescens ATCC 33563 = experiment: MIC against anaerobic bacteria; format: cell-based, Prevotella nigrescens; settings: Prevotella nigrescens, ATCC33563, read-out: MIC P. nigrescens ATCC 33563
[5] = tested on: C. difficile 4118 (CD4118, ATCC BAA-1870, BI/NAP1/027); experiment: MIC by broth microdilution against C. difficile 4118; format: cell-based, Clostridium difficile; settings: Clostridioides difficile
C. sporogenes ATCC 15579 = experiment: microbe, parasite or virus in culture; format: cell-based, Clostridium sporogenes; settings: Clostridium sporogenes, ATCC15579, read-out: MIC C. sporogenes ATCC 15579
[6] = in vivo; cited from earlier work

## O=C(Nc1ccc(Oc2ccc(Cl)cc2)c(Cl)c1)c1cc(I)cc(I)c1O [Rafoxanide, rafoxanide, reference compound]
Liver carcinoma HepG2; 8 μg/mL, 16 h
  cell viability HepG2 (MTS): no apparent effect on mammalian cell viability
Liver carcinoma HepG2; relative to niclosamide
  in vitro toxicity toward HepG2 compared with niclosamide: comparably lower in vitro toxicities
[1]
  MIC: 1 µg/mL (≈ 1.6 µM)
S. epidermidis 1457
  MIC: ≤ 0.03 µg/mL
[2]
  MIC: > 32 µg/mL
A. baumannii M2
  MIC: > 32 µg/mL
P. aeruginosa PAO1
  MIC: > 32 µg/mL
B. subtilis ATCC 6051
  MIC: ≤ 0.03 µg/mL
P. distasonis ATCC 8503
  MIC: 8 µg/mL (≈ 12.8 µM)
S. aureus RN4220
  MIC: 0.25 µg/mL (≈ 0.399 µM)
[3]; 8 μg/mL, 16 h
  cell viability HEK 293T/17 (MTS): no apparent effect on mammalian cell viability
[3]; relative to niclosamide
  in vitro toxicity toward HEK 293T/17 compared with niclosamide: comparably lower in vitro toxicities
[4]; logarithmic-phase cells of strain 4118, read-out: MBClog
  MBC: 0.5 µg/mL (≈ 0.799 µM)
[4]; stationary-phase cells of strain 4118, read-out: MBCstat
  MBC: 1 µg/mL (≈ 1.6 µM)
Sheep erythrocytes
  rupture of red blood cells (hemolysis): did not cause rupture of red blood cells
P. nigrescens ATCC 33563
  MIC: 8 µg/mL (≈ 12.8 µM)
[5]; ATCCBAA1870
  MIC: 0.13 µg/mL (≈ 0.208 µM)
[5]; ATCCBAA1870, read-out: MIC C. difficile 4118
  MIC: 0.13 µg/mL (≈ 0.208 µM)
C. sporogenes ATCC 15579
  MIC: 1 µg/mL (≈ 1.6 µM)

## Cc1cc(C(C#N)c2ccc(Cl)cc2)c(Cl)cc1NC(=O)c1cc(I)cc(I)c1O (stereo not drawn) [Closantel, reference compound]
[2]
  MIC: > 32 µg/mL
S. aureus RN4220
  MIC: 0.25 µg/mL (≈ 0.377 µM)
[6]
  excreted unchanged in the feces: ≤ 90%
[5]; ATCCBAA1870, Table 1, strain 4118, 20-24 h, 37° C., read-out: MIC C. difficile 4118
  MIC: 0.25 µg/mL (≈ 0.377 µM)
C. sporogenes ATCC 15579
  MIC: 1 µg/mL (≈ 1.51 µM)
